This passage reports TGI and GI50 results from PubChem BioAssay (NCI).

Structures are written as SMILES. Where “and” joins values, the source holds several entries; their conditions need not be identical. Equal values may be shown once.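 Where inhibition never reached the appropriate level, the endpoint shown equals the highest concentration tested. Otherwise, values were interpolated linearly from a five-concentration, 48-hour dose response in 96-well plates. Here, GI50 denotes the concentration required for 50% inhibition of growth. TGI is the concentration that stops growth completely.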

Common to all, as to test: NCI anticancer screen, dose series, 48 h
Test [1] concerns CAKI-1 renal.
Test [2] concerns DU-145 prostate.
Test [3] relates to HCT-116 colon.
Test [4] deals with IGROV1 ovarian.
Test [5] deals with LOX IMVI melanoma.
The test system of test [6] is MDA-MB-435.
Test [7] has as its system NCI-H23 lung.
Test [8] relates to NCI-H460 lung.
In test [9] the test system is NCI/ADR-RES ovarian.
The test system of test [10] is PC-3 prostate.

For `COc1cc2c(cc1O)C(c1cc(O)c(O)c(OC)c1)C(O)(C(=O)O)C(CO)C2O` (stereo not given), the TGI in test [1] was above 100 µM; in test [2], above 100 µM; in test [3], 42.7 µM; in test [4], above 100 µM; in test [5], 33.3 µM; in test [6] it was 37 µM. The TGI in test [7], in test [8], in test [9] and in test [10] was above 100 µM in each case.
As to `Oc1ccccc1C=Nc1ccccc1N=Cc1ccccc1O.[Cu+2]`, the GI50 was 2.74 µM in test [1]; 5.13 µM in [2]; 4.45 µM in [3]; 3.27 µM in [4]; 2.85 µM in test [5]; 4.38 µM in test [6]. Besides, the GI50 was 3.16 µM in [7], 12.3 µM in [8], 2.25 µM in [9] and 3.49 µM in test [10]. Also, the TGI in [1] was 12.4 µM; in [2], 18.5 µM; in [3], 16.9 µM; in test [4] it was 20.1 µM; in [5], 13.3 µM; in test [6], 17 µM. Also, the TGI is 14 µM in [7], 30 µM in test [8], 8.38 µM in test [9] and 16.2 µM in [10].
With `NC(CO)C(=O)NCC(=O)O` (stereo not given), the TGI in test [1], in test [2], in test [3], in [4], in test [5] and in [6] was above 100 µM in each case. Also, the TGI in [7], in test [8], in test [9] and in test [10] was above 100 µM in each case.
`CCN(Cc1cccc(F)c1F)c1ccc(CO)c(Cl)c1`: the GI50 in test [1] was 0.4 µM; in test [2], 18.8 µM; in test [3], 0.067 µM; in test [4], 0.0668 µM; in test [5] it was 15.8 µM; in test [6] it was 17.7 µM. Further, the GI50 in test [7] is 13.6 µM; in test [8] it was 0.176 µM; in test [9], 17.5 µM; in test [10] it was 15.4 µM. Besides, the TGI in test [1] amounted to 5.59 µM; in test [2] it was 55.6 µM; in test [3] it was 11.2 µM; in [4], 0.335 µM; in [5] it was 30.7 µM; in test [6] it was 37.1 µM. Further, the TGI in test [7] is 51.6 µM; in [8] it was 11 µM; in test [9], 52.2 µM; in test [10] it was 37.2 µM.
`Cn1c2ccccc2c2nnc(NNCc3ccccn3)nc21`: the GI50 in test [1] is 0.248 µM; in test [2], 0.312 µM; in test [3] it was 0.409 µM; in test [4], 0.364 µM; in test [5] it was 0.349 µM; in test [6] it was 0.555 µM. Further, the GI50 in [7] is 0.421 µM; in [8], 0.3 µM; in test [9], 0.276 µM; in test [10], 0.594 µM. Besides, the TGI worked out at 1.63 µM in test [1]; 11 µM in test [2]; 12.2 µM in test [3]; 4.79 µM in [4]; 4.51 µM in [5]; 14.5 µM in [6]. Moreover, the TGI in [7] was determined as 6.15 µM; in test [8], 4.03 µM; in test [9], 3.22 µM; in test [10] it was 16.5 µM.
Regarding `Nc1nc(-c2cc(-c3cccc4ccccc34)nc(N)n2)cc(-c2cccc3ccccc23)n1`, the TGI in test [1], in [2], in test [3], in test [4], in test [5] and in test [6] was above 100 µM throughout. The TGI in test [7], in test [8], in test [9] and in [10] was above 100 µM throughout.
In the case of `COC(=O)/C(=C\c1c(-c2ccccc2)[nH]c2ccccc12)S(C)(=O)=O`, the GI50 in test [1] was 1.83 µM; in test [2], 2.48 µM; in test [3], 4.2 µM; in test [4], 1.67 µM; in test [5], 5.07 µM; in test [6], 0.671 µM. In addition, the GI50 in test [7] was 7.95 µM; in test [8], 3.54 µM; in test [9], 3.28 µM; in [10], 4.16 µM. Moreover, the TGI in [1] was 82.6 µM; in [2] it was 6.11 µM; in test [3], 21.4 µM; in test [4], 9.17 µM; in [5], 17.6 µM; in test [6], 4.77 µM. Moreover, the TGI in [7] is 41.8 µM; in [8], 14.2 µM; in [9] it was above 100 µM; in test [10], above 100 µM.
As to `Clc1ccc(N2CCC(N3CCCC3)CC2)cc1-c1nc2ccccc2[nH]1`, the GI50 in test [1] was 19.3 µM; in [2], 36.7 µM; in test [3], 13.1 µM; in test [4] it was 33.8 µM; in test [5] it was 18.1 µM; in test [6], 17.7 µM. In addition, the GI50 in [7] is 25.7 µM; in test [8], 22.9 µM; in test [9], 29.4 µM; in [10] it was 30.9 µM. The TGI was 50 µM in test [1]; above 100 µM in test [2]; 27.5 µM in test [3]; above 100 µM in test [4]; 35.5 µM in test [5]; 35.7 µM in test [6]. In addition, the TGI in test [7] is above 71.3 µM; in test [8], 50.1 µM; in test [9] it was above 100 µM; in [10], above 100 µM.
For `CCN(CC)CCCNc1[nH]ncc2c(C)c3nc4ccccc4c3cc12`, the GI50 in test [1] was 4.07 µM; in test [2], 0.555 µM; in test [3], 0.412 µM and 0.421 µM; in [4], 1.08 µM; in test [5], 0.328 µM; in [6] it was 0.754 µM. The GI50 is 0.583 µM in test [7], 0.22 µM in test [8], 56.1 µM in test [9] and 0.498 µM in [10]. The TGI in test [1] was 18.1 µM and 17.7 µM; in [2], 11.2 µM and 5.62 µM; in test [3], 2.32 µM and 3.31 µM; in test [4], 8.16 µM and 6.88 µM; in test [5], 1.58 µM and 1.18 µM; in test [6] it was 2.12 µM and 4 µM. Also, the TGI in test [7] is 1.99 µM and 3.72 µM; in [8] it was 1.36 µM and 2.69 µM; in test [9] it was 200 µM; in test [10], 2.11 µM and 4.55 µM.
